This passage reports melting point and MIC results from US8088791B2, “Antibacterial agents” (Biots Scientific Management Pty Ltd, priority 2006, dated 2012).

Data set [1] has as its system Staphylococcus aureus ATCC29213. The data set is described as follows: Minimum Inhibitory Concentration (MIC) testing, broth microdilution, Staphylococcus aureus. It is filed as cell-based. To be noted: Staphylococcus aureus ATCC29213; read-out: Staphylococcus aureus MICs Activity. An outline of the steps:
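Broth microdilution per NCCLS M7-A5 in Mueller Hinton broth, with compound in 1.6% DMSO and inoculum at OD 0.09 diluted 1:100. Plates incubated 16–20 h at 37°C. MIC is the lowest concentration with no visible growth; scored A ≤8, B 16–64, C >64 μg/ml.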
In general terms: Dilution methods test growth across graded concentrations, often in twofold steps.

In data set [2] the test system is Bacillus subtilis 168CA. The data set is described as follows: Minimum Inhibitory Concentration (MIC) testing, broth microdilution, Bacillus subtilis. Type of data set: cell-based. To be noted: Bacillus subtilis 168CA; read-out: Bacillus subtilis MICs Activity. An outline of the steps:
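Broth microdilution followed NCCLS M7-A5, in rich broth such as Mueller Hinton, inoculum at OD 0.09 diluted 1:100, compounds in 1.6% DMSO before inoculum. After 16–20 h at 37 °C, MIC was the lowest concentration without visible growth. Score A: ≦8 μg/ml, B: 16–64 μg/ml, C: >64 μg/ml.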

In brackets after ≈: the same amount, converted by molar mass.

The term melting point denotes the temperature of the solid-liquid transition. `CCCCOC(=O)CCCOc1ccc(F)c(C(N)=O)c1F` [Example 181, Butyl 4-[3-(aminocarbonyl)-2,4-difluorophenoxy]butanoate] registered a melting point of 53 to 55 °C. Also, the MIC in data set [1] was in the range of 16 to 64 mg/L (≈ 50.7 to 203 µM). For the same compound, the MIC in data set [2] was less than 8 mg/L.
`C#CCCCCCCCOc1cccc(C(N)=O)c1` [Example 65, 3-(8-Nonynyloxy)benzenecarboxamide] showed a melting point of 82 to 83 °C. The MIC in data set [1] was less than 8 mg/L. Further, the MIC in data set [2] is less than 8 mg/L.
`Cc1cccc2sc(COc3ccc(F)c(C(N)=O)c3F)nc12` [Example 228, 2,6-Difluoro-3-[(4-methyl-1,3-benzothiazol-2-yl)methoxy]benzenecarboxamide] yielded a melting point of 201 to 202 °C. Moreover, the MIC in data set [1] fell in the range of 16 to 64 mg/L (≈ 47.9 to 191 µM). In addition, in data set [2], the MIC was less than 8 mg/L.
With `Cc1cncc(COc2cccc(C(N)=O)c2)c1` [Example 170, 3-[(5-Methyl-3-pyridinyl)methoxy]benzenecarboxamide], the melting point was 152 to 154 °C. Moreover, the MIC in data set [1] is greater than 64 mg/L. For the same compound, the MIC in data set [2] was greater than 64 mg/L.
`C#CCCCCCCCCOc1cccc(C(N)=O)c1` [Example 67, 3-(9-Decynyloxy)benzenecarboxamide]: the melting point fell in the range of 111 to 112 °C. The MIC in data set [1] was less than 8 mg/L. Also, in data set [2], the MIC is less than 8 mg/L.
The compound `NC(=O)c1c(F)ccc(OCc2ccc3ccccc3n2)c1F` [Example 200, 2,6-Difluoro-3-(2-quinolinylmethoxy)benzenecarboxamide] gave a melting point of 216 to 218 °C. In addition, the MIC in data set [1] was 16 to 64 mg/L (≈ 50.9 to 204 µM). Further, in data set [2], the MIC was less than 8 mg/L.
`CCCC/C=C\CCCCOc1cccc(C(N)=O)c1` [Example 45, 3-[(Z)-5-Decenyloxy]benzenecarboxamide] came in with a melting point of 98 to 100 °C. Besides, the MIC in data set [1] was less than 8 mg/L. In addition, the MIC in data set [2] is less than 8 mg/L.
In turn, `NC(=O)c1cccc(OCCCCC/C=C\c2ccc(Cl)o2)c1` [Example 64, 3-{[(Z)-7-(5-Chloro-2-furyl)-6-heptenyl]oxy}benzenecarboxamide] displayed a melting point of 53 to 56 °C. Also, the MIC in data set [1] was less than 8 mg/L. The MIC in data set [2] was less than 8 mg/L.
For `CC1CC1COc1cccc(C(N)=O)c1` (stereo not drawn) [Example 169, 3-[(2-Methylcyclopropyl)methoxy]benzenecarboxamide], the melting point is 119 to 121 °C. Also, in data set [1], the MIC was greater than 64 mg/L. Also, in data set [2], the MIC was greater than 64 mg/L.
Compound `N#CCCCCCCCCCOc1cccc(C(N)=O)c1` [Example 93, 3-[(9-Cyanononyl)oxy]benzenecarboxamide] returned a melting point of 96 to 97 °C. The MIC in data set [1] was 16 to 64 mg/L (≈ 55.5 to 222 µM). Moreover, the MIC in data set [2] is less than 8 mg/L.
The compound `NC(=O)c1cccc(OCc2cccc(O)c2)c1` [Example 173, 3-[(3-Hydroxybenzyl)oxy]benzenecarboxamide] yielded a melting point of 122 to 123 °C. Besides, in data set [1], the MIC is greater than 64 mg/L. Also, in data set [2], the MIC was greater than 64 mg/L.
With `COc1ccc2nc(COc3ccc(F)c(C(N)=O)c3F)sc2c1` [Example 224, 2,6-Difluoro-3-[(6-methoxy-1,3-benzothiazol-2-yl)methoxy]benzenecarboxamide], the melting point was 190 to 192 °C. Besides, the MIC in data set [1] is greater than 64 mg/L. In data set [2], the MIC lay in the range of 16 to 64 mg/L (≈ 45.7 to 183 µM).
On the same counts, the results for `C#CCCCCCCCCCCOc1cccc(C(N)=O)c1` [Example 66, 3-(11-Dodecynyloxy)benzenecarboxamide] are 106 to 108 °C, less than 8 mg/L and less than 8 mg/L.
The matching figures for `CCCCCCCCCOc1ccc(F)c(C(N)=O)c1Cl` [Example 78, 2-Chloro-6-fluoro-3-(nonyloxy)benzenecarboxamide]: 64 to 66 °C, less than 8 mg/L and less than 8 mg/L.
On the same counts, the results for `COC(=O)C=CCOc1ccc(F)c(C(N)=O)c1F` [Example 179, Methyl 4-[3-(aminocarbonyl)-2,4-difluorophenoxy]-2-butenoate] are 122 to 123 °C, greater than 64 mg/L and greater than 64 mg/L.
